The values that follow come from patent US11806340B2, “Methods of diagnosing and treating conduct disorder” (THE CHILDREN'S HOSPITAL OF PHILADELPHIA, priority 2015, dated 2023).

Data set [1] has as its system ADHD subjects with CNV in an mGluR network gene. The experiment in a line: Open-label Phase Ib clinical trial of NFC-1 in adolescent ADHD subjects with a genetic alteration in an mGluR network gene. It is filed as in vivo, human. How it is done: An open-label Phase Ib clinical trial was conducted to investigate the safety, pharmacokinetics and efficacy of NFC-1 (fasoracetam monohydrate) in adolescent subjects between the ages of 12 and 17 previously diagnosed with ADHD who also had at least one genetic alteration in an mGluR network gene.
The study included 30 ADHD subjects who were between ages 12 and 17, of any ancestry or race, of weight within the 5th to 95th percentile for their age, and otherwise judged to be in good medical health. […] Seventeen of the 30 subjects have a CNV in a tier 1 mGluR network gene, while 7 subjects have a CNV in a tier 2 gene and 6 in a tier 3 gene.
Exclusion criteria comprised subjects suffering from a clinically significant illness, either mental or physical, that, in the investigator's opinion, might confound the results of the study or that might prevent them from completing the study, subjects that are pregnant or nursing, subjects that test positive for illicit drugs of that have a history of drug abuse, subjects that consume alcoholic beverages, or subjects for which the investigator is otherwise concerned regarding their compliance or suitability.
NFC-1 capsules of either 50 mg or 200 mg comprising fasoracetam monohydrate as active ingredient and placebo capsules comprising microcellulose were used for the study. The design of the trial was a phone screening (1 day), enrollment phase (1 to 2 days), a wash-out phase for subjects currently on ADHD medications (1-14 days), pharmacokinetic (PK) assessment (2 days), followed by a dose-escalation phase (35 days) and a follow-up phone visit approximately four weeks after the last dose, for a maximum of 127 days. All ADHD medications were discontinued during the wash-out phase prior to the study. The wash-out period for stimulants was 2-3 days and that for atomoxetine or noradrenergic agonists was 10-12 days. No new ADHD medications were started during the study.
A dose-escalation phase of the trial ran over a 5-week period, after the initial wash-out period and the PK and initial safety assessments. […]

Data set [2] concerns dementia-related cognitive impairment. The conditions noted are these: cited from earlier work.
The conditions of data set [3]: prior human studies; cited from earlier work.

For the molecule `O=C1CC[C@H](C(=O)N2CCCCC2)N1` [NFC-1, fasoracetam monohydrate], in data set [1] (all eight subjects with OCD symptoms, during therapy), the OCD symptoms entry was “improved”. Also, the “dermatillomania symptoms (ear scratching, bleeding ulcer)” value in data set [1] (one subject with OCD and a history of ear scratching, during therapy) is listed as “reduced”. The “conduct disorder symptoms, Vanderbilt items 27-40 score” value in data set [1] (week 5, one subject meeting conduct disorder criteria, decreased from 16 at week 1 (placebo week), 50-400 mg bid dose escalation) is 12. For the same molecule, the safety and tolerability result in data set [2] (Phase I-III trials, dementia-related cognitive impairment) is “generally safe and well tolerated”. In addition, the “effects on psychiatric symptoms” value in data set [2] (Phase III data, cerebral infarct patients and adult dementia patients with cerebrovascular diseases) is reported as “beneficial effects”. The efficacy in dementia result in data set [2] (Phase III trials) was “did not show sufficient efficacy”.

As for `O=C1CC[C@H](C(=O)N2CCCCC2)N1` [Fasoracetam, fasoracetam], the bioavailability in data set [3] is recorded as 79%-97%.
